{"source": "BindingDB's records for PubMed 32120325", "about": "(China Pharmaceutical University, 2020)", "key": {"[1]": {"target": "T1, Signal transducer and activator of transcription 3 (Homo sapiens, UniProt P40763)", "T1 sequence (P40763 whole entry)": "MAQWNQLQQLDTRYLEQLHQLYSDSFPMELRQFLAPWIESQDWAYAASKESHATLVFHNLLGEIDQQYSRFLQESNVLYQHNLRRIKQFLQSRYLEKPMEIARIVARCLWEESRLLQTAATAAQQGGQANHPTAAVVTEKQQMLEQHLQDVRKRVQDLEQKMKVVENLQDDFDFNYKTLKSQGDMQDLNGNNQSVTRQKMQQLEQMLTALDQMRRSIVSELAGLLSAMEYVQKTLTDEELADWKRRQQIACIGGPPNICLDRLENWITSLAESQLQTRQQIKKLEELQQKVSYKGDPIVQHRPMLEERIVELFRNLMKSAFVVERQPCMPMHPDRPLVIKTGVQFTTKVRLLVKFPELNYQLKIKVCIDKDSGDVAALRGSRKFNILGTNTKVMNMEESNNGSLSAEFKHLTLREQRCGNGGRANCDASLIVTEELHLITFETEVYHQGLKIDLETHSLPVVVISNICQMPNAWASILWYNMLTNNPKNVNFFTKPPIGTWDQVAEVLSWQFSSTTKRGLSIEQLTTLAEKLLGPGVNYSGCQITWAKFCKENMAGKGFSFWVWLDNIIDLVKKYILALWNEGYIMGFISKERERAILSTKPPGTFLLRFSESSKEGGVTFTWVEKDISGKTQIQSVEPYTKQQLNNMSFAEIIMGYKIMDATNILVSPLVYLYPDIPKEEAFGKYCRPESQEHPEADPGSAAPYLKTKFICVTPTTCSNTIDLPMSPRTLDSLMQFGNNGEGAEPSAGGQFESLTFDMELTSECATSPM", "assay": "Inhibition of IL-6 stimulated STAT3 phosphorylation in human PBMC preincubated with compound for 10 to 15 mins followed by IL-6 stimulation and measured after 15 mins by ELISA analysis"}, "[2]": {"target": "T1, Signal transducer and activator of transcription 3", "assay": "Inhibition of IL-23 stimulated STAT3 […] in human naive T cell preincubated with compound for 10 to 15 mins followed by IL-23 stimulation and measured after 15 mins by ELISA analysis"}}, "data": [{"smiles": "CCS(=O)(=O)N1CC(CC#N)(n2cc(-c3ncnc4[nH]ccc34)cn2)C1", "note": "[LY-3009104]", "values": [{"measurement": "IC50", "setting": "[1]", "result": 44, "unit": "nM"}, {"measurement": "IC50", "setting": "[2]", "result": 20, "unit": "nM"}]}]}
